According to patent US20120035187A1 (priority 2009, published 2012):
Where two headings read alike, the source gives them in different places. Marks after values point to notes of the source that are not given here.

Key:
[1] = system: hamsters with cerebellar ataxia; assay: Histological evaluation of cerebellum of hamsters with cerebellar ataxia; format: in vivo, hamster; settings: 10-weeks of age; for Cerebellar volume (mm^3) / Number of Purkinje cells (cells) / Number of granular cells (cells/20000 μm^2): cerebellar ataxia hamsters; for Number of subject (head) with apparent demyelination in cerebellar white matter: five heads per group
Text: (§1) Since NK-4 was confirmed to have a neurodegenerative inhibitory action in Experiment 1, hamsters with cerebellar ataxia (cerebellar ataxia is called “cerebellar A” and hamsters with cerebellar ataxia are called “hamsters with cerebellar A”, hereinafter) as a suitable model for human neurodegenerative diseases (e.g., spinal cerebellar degeneration) were subjected to examine the influence of NK-4 administration on their behaviors and brain tissues. Twenty-five hamsters with natural mutation (Nna1 inhibition), which are known to lose Purkinje's cells after three-weeks of age and then induce a spontaneous onset of kinetic motor ataxia after seven-weeks of age (see Akita K. et al., “J. Neurogenetics”, Vol. 21, pp. 19-29, 2007), had been fed at Hayashibara Biochemical Laboratories., Inc., Okayama, Japan, were randomly allocated to the test groups 1 to 5, five heads in each group, as shown in Table 2. Prior to the onset of cerebellar A (at three-weeks of age), PBS was started to administer to the hamsters in the test group 1 at a dose of 10 ml/kg/day. Prior to the onset of cerebellar A (at three-weeks of age), NK-4 was started to be administered to the hamsters in the test groups 2 to 4 at a daily dose of 20 μg/kg, 100 μg/kg or 500 μg/kg. “IGF-1, human, a product name of insulin-like growth factor, commercialized by Assaypro LLC, MO, USA. These administered ingredients were intraperitoneally administered daily to hamsters once a day up to 10-weeks of age. The degree of symptom of cerebellar A and the improvement effect on the symptom by NK-4 were evaluated with an index of improvement in motor coordination of hamsters by conducting once a week the later described rotarod test and the slant tolerance test. At the age of 10-weeks, the hamsters were subjected to counting the falling down frequency and extracted their brains, which were then histologically evaluated. In parallel, the concentration of glutamic acid in the bloods and cerebrospinal fluids (CSF) of the hamsters was assayed. As a test group 6, five normal hamsters, with the same age as the hamsters with cerebellar A used in the test groups 1 to 5, were provided and tested similarly as the hamsters with cerebellar A in such a manner of intraperitoneally administering PBS to them at a dose of 10 ml/kg/day once a day up to 10-weeks of age.
Hamsters, 10-weeks of age, after completion of test on coordinated movement such as a confirmation of falling down frequency were intraperitoneally received 50 mg/kg pentobarbital, bled from their postcavas to let them die, and extracted their cerebra and cerebella, followed by fixing them with a 10% by volume of formalin solution. The resulting cerebra and cerebella were photographed with a digital camera apart from a prescribed high position and measured diameters in sagittal and horizontal directions for each photograph. The volumes of cerebra and cerebella were respectively determined by calculating with the formula, (length of sagittal direction)^2×(length of horizontal direction)×0.5; and the data from five heads in each group were averaged. The hamsters with cerebella A used in this experiment are known to reduce cell density of Purkinje's cells and granular cells. Cerebellar slices, which had been cut out in sagittal direction, were stained with hematoxylin-eosin stain, and microscopically observed to count the total number of Purkinje's cells within a Purkinje's cell layer ([…] I to X) and the number of granular cells per unit area, and to confirm subjects in which demyelination was observed within their cerebellar white matters. The results are in Table 5 in parallel.

PC12-HS cells [2] = format: cell-based, rat
[3] = system: hamsters with cerebellar ataxia; assay: Concentration of glutamic acid in cerebrospinal fluid (CSF); format: in vivo, hamster; settings: 10-weeks of age
Text: as §1
The content of glutamic acid, which is used for synthesizing gamma-amino butyric acid (GABA) as a main excitatory neurotransmitter and inhibitory neurotransmitter that regulate higher-order functions such as memory/learning in mammalian central nervous system, was assayed. In harvesting the brains from the above hamsters, they were blooded from their postcavas, followed by collecting CSF for use in the later described assay for glutamic acid concentration. […]

PI3K-Akt cascade = assay: Actions of NK-4 on PC12-HS cells in presence of K252a or LY294002; format: cell-based, rat; settings: concrete data omitted
APP Tg mouse = assay: Passive avoidance test, APP transgenic mouse; format: in vivo; settings: for Passive avoidance reaction: intraperitoneal, five times a week for 12 weeks
PC12-HS cells [4] = assay: Apoptosis induced by amyloid β fragment, Hoechst 33258 staining; format: cell-based, rat; settings: 50 μM amyloid β fragment, NK-4 200 ng/ml
Procedure: A plurality of peptide fragments (called “AMYLOID β FRAGMENT” commercialized by AnaSpec, Inc., CA, USA, each peptide having the amino acid sequence of SEQ ID NO:1), which have an amino acid sequence positioning from 25th to 35th from the N-terminus of amyloid R peptide with human origin and have been recognized as a main factor of neurocyte death in Alzheimer's disease, were diluted with phosphate buffered saline (PBS) to give a concentration of 2 mM, and used after being aged at 37° C. for six hours to coagulate them to increase their cytotoxicity before use. […] Viability (%) of cells in each well was determined and shown in Table 1 by calculating a relative value when the fluorescent intensity of the control was regarded as 100%. […] Thereafter, the cells were stained with […] Hoechst 33258 dye commercialized by SIGMA Corporation, Tokyo, Japan, for five min, observed at a magnitude corresponding to a visual filed containing about 100 cells under a phase contrast microscope and a fluorescent microscope, and counted. The occupied percentage (%) of cells with apoptosis against the total cells in one visual field was calculated and the data was also shown in Table 1. […]

SMILES: CCN1C=CC(=CC=C(C=Cc2cc[n+](CC)c3ccccc23)c2cc[n+](CC)c3ccccc23)c2ccccc21.[I-].[I-] [NK-4]
- Cerebellar volume (mm^3) ([1]; 20 μg/kg body weight): 76.0 ± 8.2* mm^3
- Number of Purkinje cells (cells) ([1]; 20 μg/kg body weight): 187 ± 37 cells
- Number of granular cells (cells/20000 μm^2) ([1]; 20 μg/kg body weight): 408 ± 8 cells/20000 μm^2
- Cerebellar volume (mm^3) ([1]; 100 μg/kg body weight): 77.0 ± 2.8* mm^3
- Number of Purkinje cells (cells) ([1]; 100 μg/kg body weight): 252 ± 29 cells
- Number of granular cells (cells/20000 μm^2) ([1]; 100 μg/kg body weight): 419 ± 6 cells/20000 μm^2
- Cerebellar volume (mm^3) ([1]; 500 μg/kg body weight): 80.5 ± 10.8* mm^3
- Number of Purkinje cells (cells) ([1]; 500 μg/kg body weight): 231 ± 41 cells
- Number of granular cells (cells/20000 μm^2) ([1]; 500 μg/kg body weight): 436 ± 7 cells/20000 μm^2
- Number of subject (head) with apparent demyelination in cerebellar white matter ([1]; 20 μg/kg body weight): 4 head
- Number of subject (head) with apparent demyelination in cerebellar white matter ([1]; 100 μg/kg body weight): 1 head
- Number of subject (head) with apparent demyelination in cerebellar white matter ([1]; 500 μg/kg body weight): 0 head
- Survibal percentage of cells when admixed with cytotoxic factor (%) Hydrogen peroxide (PC12-HS cells [2]; NK-4 50 ng/ml): 50%
- Survibal percentage of cells when admixed with cytotoxic factor (%) Hydrogen peroxide (PC12-HS cells [2]; NK-4 500 ng/ml): 50%
- Survibal percentage of cells when admixed with cytotoxic factor (%) Hydrogen peroxide (PC12-HS cells [2]; NK-4 5000 ng/ml): 70 ** %
- Survibal percentage of cells when admixed with cytotoxic factor (%) Hydrogen peroxide (PC12-HS cells [2]; NK-4 50000 ng/ml): 90 ** %
- concentration required for protection action against hydrogen peroxide injury (PC12-HS cells [2]; PC12-HS cells): 5,000 ng/ml
- Survibal percentage of cells when admixed with cytotoxic factor (%) Hydrogen peroxide (PC12-HS cells [2]; PC12-HS cells, 200 μM hydrogen peroxide, 2 hours, NK-4 5 ng/ml): 51%
- Concentration of glutamic acid in cerebrospinal fluid ([3]; 20 μg/kg body weight): 7.2 ± 0.8 µM
- Concentration of glutamic acid in cerebrospinal fluid ([3]; 100 μg/kg body weight): 8.7 ± 2.6 µM
- Concentration of glutamic acid in cerebrospinal fluid ([3]; 500 μg/kg body weight): 9.5 ± 2.9 µM
- inhibition by K252a of the actions of NK-4 on PC12-HS cell growth promotion and neurite outgrowth (PI3K-Akt cascade; K252a, protein kinase inhibitor specific to TrkA): did not inhibit
- inhibition by LY294002 of the action of NK-4 (PI3K-Akt cascade; LY294002, PI3K inhibitor): is inhibited by LY294002
- Passive avoidance reaction (APP Tg mouse; dose 100 μg/kg body weight): 280 ± 20 s
- Passive avoidance reaction (APP Tg mouse; dose 500 μg/kg body weight): 243 ± 25 s
- passive avoidance test (in words) (APP Tg mouse; i.p. five times a week for 12 weeks): improved the dementia
- Percentage of appoptosis-induced cells (%) Amyloid β fragment (PC12-HS cells [4]): 13 ** %
